{
  "source": "paper PMC11881343",
  "about": "“Safety of ilunocitinib tablets (Zenrelia™) after once daily oral administration in dogs” (BMC Veterinary Research, 2025)",
  "key": {"dogs": {"system": "dogs", "details": "field conditions; cited from earlier work"}, "healthy Beagle dogs [1]": {"system": "healthy Beagle dogs", "details": "dog, in vivo", "method": "(§1) At study termination (study day 183), the dogs were humanely euthanized by an intravenous injection of pentobarbital sodium/phenytoin solution under sedation with 6.6–13.2 mg/kg Telazol® (tiletamine/zolazepam) subcutaneous injection. Gross and microscopic examinations were carried out on all animals by a board-certified veterinary pathologist."}, "[2]": {"experiment": "Plasma pharmacokinetics of ilunocitinib (LC-MS/MS, non-compartmental analysis)", "method": "Samples were collected at pre-dose and at 0.5, 1, 2, 5, 8 and 24 h post-dosing on the day of the first and last dose (study days 1 and 182) and at pre-dose and at 1 and 24 h post-dosing at study day 85. Blood samples were collected in tubes containing K2 EDTA. Blood was processed to plasma within one hour of collection and plasma samples were stored frozen at -20 °C until analyzed.\nThe bioanalytical data were processed as individual concentration vs. time profiles using a non-compartmental analysis (NCA). Calculations were performed with the software Phoenix WinNonlin (version 8.3; Certara, USA). Tmax and Cmax were derived from observed values. AUCs were calculated using the Linear Up Log Down method. In addition, T1/2 was calculated using the best fit method and dose, time and sex effects were evaluated based on Cmax and AUClast ratios."}, "[3]": {"system": "leukocyte subsets (T, Th, Tc, B lymphocytes, monocytes)", "experiment": "Peripheral blood immunophenotyping by flow cytometry", "assay_type": "in vivo, dog", "details": "either sex at any dose level", "from_the_text": "Whole blood samples were also collected from the jugular vein for the evaluation of the leukocyte subsets and phenotypes on study days − 16 and − 8, and on study days 29, 57, 85, 113, 141, 169 and 183. The immunophenotype profiling by flow cytometry included total T lymphocytes (CD45 + CD5 + or CD5 + T cells), Helper T lymphocytes (CD45 + CD5 + CD4 + or CD4 + Th cells), Cytotoxic T lymphocytes (CD45 + CD5 + CD8 + or CD8 + Tc cells), B lymphocytes (CD45 + CD5- CD21 + or CD21 + B cells) and monocytes (CD45 + CD14+).\nFor immunophenotyping/peripheral blood leukocytes, a generalized linear mixed model for repeated measures analysis of variance (mixed model) was conducted. For each endpoint, the model tested for the effects of treatment, time, sex and all two and three-way interactions. The last available pre-treatment value was included in the model as a covariate. The evaluation proceeded as described for RMANCOVA."}, "[4]": {"details": "tablets, dogs; no reference given; cited from earlier work"}, "healthy Beagle dogs [5]": {"system": "healthy Beagle dogs", "experiment": "6-month target animal safety study: clinical observations, physical, neurological and ophthalmoscopic examinations", "details": "for Skin discoloration, number of animals affected / Skin lesion w/discharge, number of animals affected / Skin lesion, number of animals affected / Skin scab paw, number of animals affected / Skin thickening (paws), number of animals affected / Swollen paws, number of animals affected: 8 dogs per group", "procedure": "This was a randomized, controlled, blinded, 6-month study with a parallel design. Using a block randomization procedure stratified by sex, 20 males and 20 females were randomly allocated on study day − 3 to one of the following five groups (4 males and 4 females per group): Group 1: Untreated control (sham-dosed with 5 mL of tap water); Group 2: Ilunocitinib film-coated tablets at a target dose level of 0.8 mg/kg (1X); Group 3: Ilunocitinib film-coated tablets at a target dose level of 1.6 mg/kg (2X); Group 4: Ilunocitinib film-coated tablets at a target dose level of 2.4 mg/kg (3X) and Group 5: Ilunocitinib film-coated tablets at a target dose level of 4.0 mg/kg (5X). The experimental unit was the individual dog.\nThe dose levels were selected based on the maximum therapeutic dose (i.e. 0.8 mg/kg, 1X) and the requirement to test multiples of the maximum therapeutic dose, i.e. 2X, 3X and 5X the therapeutic dose. Doses for each individual animal were based on the most recent body weight. Commercial tablets of ilunocitinib, available in 4.8, 6.4, 8.5, and 15 mg strength, were dispensed. These tablets were combined appropriately to meet the individual’s precise dosage requirement, ensuring there was no underdosing. […] Approximately 5 mL of water was given after each administration and the mouth checked to ensure the tablets had been swallowed. Control animals were sham treated with 5 mL of tap water.\nAnimals were observed twice daily, at least 6 h apart, over the entire course of the study for morbidity, mortality and injury. Clinical examinations of each dog were performed before treatment administration and at approximately 2 and 5 h post treatment. Observations included, but were not limited to, evaluation of skin, fur, eyes, ears, nose, oral cavity, thorax, abdomen, external genitalia, limbs and feet, respiratory and circulatory signs, autonomic effects such as salivation, and nervous system effects including tremors, convulsions, reactivity to handling, and unusual behavior.\nBody weights for all animals were recorded during the acclimation phase (study days − 12 and − 1) and then once weekly during the study. Food consumption (dry and wet food) was measured and recorded daily. […] Assessments including overall general condition and behavior, ocular inspection, integument, musculoskeletal, gastrointestinal, body temperature, cardiovascular and respiratory systems including auscultation-based assessment, reproductive, lymphatic, urinary and nervous systems."}, "healthy Beagle dogs [6]": {"system": "healthy Beagle dogs", "experiment": "6-month safety study: organ weights, gross and microscopic examinations", "details": "5X group", "method": "as §1"}, "[7]": {"details": "1X (0.8 mg/kg oral once daily, 6 months)"}, "[8]": {"details": "2X (1.6 mg/kg oral once daily, 6 months)"}, "[9]": {"details": "3X (2.4 mg/kg oral once daily, 6 months)"}, "[10]": {"details": "5X (4.0 mg/kg oral once daily, 6 months)"}},
  "data": [
    {"smiles": "N#CCC1(n2cc(-c3ncnc4[nH]ccc34)cn2)CN(S(=O)(=O)C2CC2)C1", "note": "[ilunocitinib]", "values": [
      {"measurement": "Weight gain in dogs under field conditions", "setting": "dogs", "value": "in very few cases"},
      {"measurement": "Microscopic findings across all groups", "setting": "healthy Beagle dogs [1]", "value": "minimal and largely consistent with background pathology"},
      {"measurement": "combined adrenal gland weight vs controls", "setting": "healthy Beagle dogs [1]", "value": "increased combined adrenal gland weight"},
      {"measurement": "cutaneous lesions (microscopic), animals affected", "setting": "healthy Beagle dogs [1]", "value": "5 out of 8"},
      {"measurement": "enlarged thyroid/parathyroid glands (incidental macroscopic finding)", "setting": "healthy Beagle dogs [1]", "value": "single case of enlarged thyroid/parathyroid glands"},
      {"measurement": "focal lesions on the lungs (incidental macroscopic finding)", "setting": "healthy Beagle dogs [1]", "value": "two focal lesions on the lungs"},
      {"measurement": "AUC ratio, study day 182 vs day 1", "setting": "[2]; group 2 (1X: 0.8 mg/kg)", "value": 1.2},
      {"measurement": "AUC ratio, study day 182 vs day 1", "setting": "[2]; group 3 (2X: 1.6 mg/kg)", "value": 1.4},
      {"measurement": "AUC ratio, study day 182 vs day 1", "setting": "[2]; group 4 (3X: 2.4 mg/kg)", "value": 1.6},
      {"measurement": "AUC ratio, study day 182 vs day 1", "setting": "[2]; group 5 (5X: 4.0 mg/kg)", "value": 1.2},
      {"measurement": "effects on leukocyte analysis (immunophenotyping) parameters", "setting": "[3]", "value": "no test article-related effects"},
      {"measurement": "increase in oral bioavailability when given with food or after feeding", "setting": "[4]", "value": "~20", "unit": "%"},
      {"measurement": "serious adverse effects during the course of the study", "setting": "healthy Beagle dogs [5]; 0.8 to 4.0 mg/kg once daily for 6 months", "value": "no serious adverse effects"},
      {"measurement": "Skin discoloration, number of animals affected", "setting": "healthy Beagle dogs [5]; [7]", "value": 1},
      {"measurement": "Skin lesion w/discharge, number of animals affected", "setting": "healthy Beagle dogs [5]; [7]", "value": 1},
      {"measurement": "Skin lesion, number of animals affected", "setting": "healthy Beagle dogs [5]; [7]", "value": 4},
      {"measurement": "Skin scab paw, number of animals affected", "setting": "healthy Beagle dogs [5]; [7]", "value": 0},
      {"measurement": "Skin thickening (paws), number of animals affected", "setting": "healthy Beagle dogs [5]; [7]", "value": 0},
      {"measurement": "Swollen paws, number of animals affected", "setting": "healthy Beagle dogs [5]; [7]", "value": 1},
      {"measurement": "interdigital furunculosis, or cysts, with or without discharge on one or more paws", "setting": "healthy Beagle dogs [5]; 1X to 5X", "value": "dose-dependent presence"},
      {"measurement": "Skin discoloration, number of animals affected", "setting": "healthy Beagle dogs [5]; [8]", "value": 1},
      {"measurement": "Skin lesion w/discharge, number of animals affected", "setting": "healthy Beagle dogs [5]; [8]", "value": 3},
      {"measurement": "Skin lesion, number of animals affected", "setting": "healthy Beagle dogs [5]; [8]", "value": 5},
      {"measurement": "Skin scab paw, number of animals affected", "setting": "healthy Beagle dogs [5]; [8]", "value": 0},
      {"measurement": "Skin thickening (paws), number of animals affected", "setting": "healthy Beagle dogs [5]; [8]", "value": 1},
      {"measurement": "Swollen paws, number of animals affected", "setting": "healthy Beagle dogs [5]; [8]", "value": 5},
      {"measurement": "Skin discoloration, number of animals affected", "setting": "healthy Beagle dogs [5]; [9]", "value": 2},
      {"measurement": "Skin lesion w/discharge, number of animals affected", "setting": "healthy Beagle dogs [5]; [9]", "value": 3},
      {"measurement": "Skin lesion, number of animals affected", "setting": "healthy Beagle dogs [5]; [9]", "value": 6},
      {"measurement": "Skin scab paw, number of animals affected", "setting": "healthy Beagle dogs [5]; [9]", "value": 1},
      {"measurement": "Skin thickening (paws), number of animals affected", "setting": "healthy Beagle dogs [5]; [9]", "value": 1},
      {"measurement": "Swollen paws, number of animals affected", "setting": "healthy Beagle dogs [5]; [9]", "value": 6},
      {"measurement": "Skin discoloration, number of animals affected", "setting": "healthy Beagle dogs [5]; [10]", "value": 0},
      {"measurement": "Skin lesion w/discharge, number of animals affected", "setting": "healthy Beagle dogs [5]; [10]", "value": 4},
      {"measurement": "Skin lesion, number of animals affected", "setting": "healthy Beagle dogs [5]; [10]", "value": 8},
      {"measurement": "Skin scab paw, number of animals affected", "setting": "healthy Beagle dogs [5]; [10]", "value": 1},
      {"measurement": "Skin thickening (paws), number of animals affected", "setting": "healthy Beagle dogs [5]; [10]", "value": 0},
      {"measurement": "Swollen paws, number of animals affected", "setting": "healthy Beagle dogs [5]; [10]", "value": 3},
      {"measurement": "ophthalmological or neurological findings associated with treatment", "setting": "healthy Beagle dogs [5]; all dose levels", "value": "No ophthalmological or neurological findings"},
      {"measurement": "serious adverse effects or mortality", "setting": "healthy Beagle dogs [5]; including at 5X overdose for 6 months", "value": "no serious adverse effects or mortality"},
      {"measurement": "tolerability", "setting": "healthy Beagle dogs [5]; therapeutic dose (0.8 mg/kg)", "value": "well-tolerated"},
      {"measurement": "Prostate weight, prostate weight as a percent of body weight and ratio of prostate weight to brain weight vs controls", "setting": "healthy Beagle dogs [6]", "value": "significantly decreased"}
    ]}
  ]
}
